Reference: patent US8114886B2, “Pyridylmethylsulfone derivative” (Daiichi Sankyo Company, Limited, priority 2005, dated 2012)
Entries after “also recorded” stand apart in the source; their conditions may differ. Read-outs that look alike come from different tables or passages of the source.

Assays:
[1] = system: intracerebral amount of Aβ; assay: Assessment of β-amyloid protein production inhibitory action and immunosuppressing action in vivo; details: male SD rats, oral, single dose, cerebrum Aβ after 3 hours, repeated administration for 7 days for immunosuppression
From the text: As an example of the compound (1), the compounds described in Example 22, Example 85, Example 101, Example 106 or Example 118 (respectively, compound represented by the above formula (1-1), (1-2), (1-3), (1-4) or (1-5), which will be hereinafter referred respectively to compound (1-1), (1-2), (1-3), (1-4) or (1-5)), or the control compound LY, was suspended in a 0.5% aqueous solution of methylcellulose, and the suspension was orally administered in a single dose to male SD rats (about 5 weeks old). For the solvent control group, a 0.5% aqueous solution of methylcellulose was administered alone. After 3 hours of administration, the brain was excised, and the cerebrum was collected. The cerebrum was homogenized with a 42% aqueous solution of formic acid, and was centrifuged at 100,000×g for 60 minutes. The resulting supernatant was neutralized with 1 M Tris, and the Aβ concentration in these samples were measured using the sandwich type ELISA method as described in Test Example 1. Furthermore, the compound (1-1) to (1-5) or control compound LY was orally administered to male SD rats repeatedly for 7 days, and the rats were subjected to histopathological and serological examinations, so as to assess the immunosuppressing effect of the compound.

[2] = system: β-amyloid protein (Aβ) secreted by E35 cells (H4 cells with APP751 gene); assay: Screening system using E35 cells for inhibition of production/secretion of β-amyloid protein (sandwich ELISA of Aβ in culture medium); assay type: cell-based, human; details: 24 hours with compound, Aβ in culture supernatant by ELISA, read-out: Inhibitory Activity for Production of A(EC50)
Experimental: The activity of the compound inhibiting β-amyloid protein production was measured on E35 cells prepared by introducing APP751 gene, a gene of a human wild type β-amyloid protein precursor protein, to human glioma cells (H4 cells), by quantifying the amount of β-amyloid protein (Aβ) secreted to the culture medium by means of a sandwich type Enzyme-Linked Immunosorbent Assay (ELISA) method.
That is, E35 cells inoculated on a 96-well plate were cultured in an incubator at 37° C. which was maintained at equilibrium with 5% carbon dioxide, using Dulbecco's Modified Eagle's Medium containing inactivated 10% fetal bovine serum as the culture medium. After 24 hours from the inoculation, a test compound dissolved in a DMSO solution was added. The DMSO solution of the test compound was prepared at a concentration of 2000 times of the final concentration, such that the DMSO concentration in the culture medium would be 0.05%. After culturing for another 24 hours, the culture supernatant was recovered, and this was added to a 96-well plate for ELISA onto which a monoclonal antibody against Aβ, 25-1, was solid-phased. The plate was incubated at 4° C. for 16 to 20 hours. The plate was washed with phosphate buffer solution (pH 7.4), and then a biotinylated monoclonal antibody against Aβ, MA32-40, was added thereto. The plate was left to stand at 4° C. for 2 hours. The plate was washed again with phosphate buffer solution, and then alkaline phosphatase-conjugated streptavidin was added to conjugate streptavidin to biotin. Subsequently, the plate was washed with phosphate buffer solution. To this, Blue Phos (Kirkegaard & Perry Laboratories, Inc.) was added. After incubating the plate for an appropriate time, the reaction was terminated with an acid, and the absorbance for each well was measured. The amount of Aβ contained in the culture supernatant was determined from a calibration curve which was produced separately, and the amount was compared with that of control cells to which the compound was not added. Thus, the concentration at which 50% of the Aβ production is inhibited (EC50 value) was calculated. In addition, the 25-1 antibody and MA32-40 antibody used in ELISA were mouse monoclonal antibodies derived from the hybridoma cell clone lines, which were each produced and selected according to a standard method using Aβ25-35 and Aβ1-8 as antigens, respectively, and which specifically recognize their respective antigens. […]
The scores indicate ++++ for the case where EC50 was 5 nM or less; +++ for the case where EC50 was 5 to 50 nM; ++ for the case where EC50 was 50 to 500 nM; and + for the case where EC50 was 500 nM to 5 μM.

Row | EC50 ([2]; Homo sapiens) | melting point | SMILES | other results
1 | 500 to 5000 nM | – | Cc1cc(C(=O)N(C)C)ncc1C(c1cc(F)ccc1F)[S+]([O-])c1ccc(F)cc1 (stereo not drawn) [Example 22, 5-[(2,5-Difluorophenyl)[(4-fluorophenyl)sulfinyl]methyl]-N,N,4-trimethylpyridine-2-carboxamide] | difference between the dose exhibiting a statistically significant decrease in the intracerebral amount of Aβ and the dose exhibiting an immunosuppressing effect ([1]; listed as (1-1)): sufficient differences were recognized; also recorded: sufficient difference
2 | 5 to 50 nM | 231 to 234 °C | CONC(=O)c1cc(C)c(C(c2cc(F)ccc2F)S(=O)(=O)c2ccc(F)cc2)cn1 (stereo not drawn) [Example 78, 5-[(2,5-Difluorophenyl)[(4-fluorophenyl)sulfonyl]methyl]-N-methoxy-4-methylpyridine-2-carboxamide] | –
3 | 50 to 500 nM | 156 to 158 °C | CON(C)C(=O)c1cc(C)c(C(c2cc(F)ccc2F)S(=O)(=O)c2ccc(F)cc2)cn1 (stereo not drawn) [Example 79, 5-[(2,5-Difluorophenyl) [(4-fluorophenyl)sulfonyl]methyl]-N-methoxy-N,4-dimethylpyridine-2-carboxamide] | –
4 | ≤ 5 nM | 167 to 169 °C | COC(=O)NCCNC(=O)c1cc(C)c(C(c2cc(F)ccc2F)S(=O)(=O)c2ccc(F)cc2)cn1 (stereo not drawn) [Example 84, Methyl[2-[[[5-[(2,5-difluorophenyl)[(4-fluorophenyl)sulfonyl]methyl]-4-methylpyridin-2-yl]carbonyl]amino]ethyl]carbamate] | –
5 | ≤ 5 nM | 164 to 166 °C | Cc1cc(C(=O)NCO)ncc1C(c1cc(F)ccc1F)S(=O)(=O)c1ccc(F)cc1 (stereo not drawn) [Example 85, 5-[(2,5-difluorophenyl)[(4-fluorophenyl)sulfonyl]methyl]-N-(1-hydroxymethyl)-4-methylpyridine-2-carboxamide] | difference between the dose exhibiting a statistically significant decrease in the intracerebral amount of Aβ and the dose exhibiting an immunosuppressing effect ([1]; listed as (1-2)): sufficient differences were recognized
6 | ≤ 5 nM | 164 to 165 °C | Cc1cc(C(=O)NCCO)ncc1C(c1c(F)ccc(F)c1F)S(=O)(=O)c1ccc(F)cc1 (stereo not drawn) [Example 94, 5-[[(4-Fluorophenyl)sulfonyl](2,3,6-trifluorophenyl)methyl]-N-(2-hydroxyethyl)-4-methylpyridine-2-carboxamide] | –
7 | ≤ 5 nM | – | Cc1cc(C(=O)NCO)ncc1C(c1c(F)ccc(F)c1F)S(=O)(=O)c1ccc(F)cc1 (stereo not drawn) [Example 101, 5-[[(4-Fluorophenyl)sulfonyl](2,3,6-trifluorophenyl)methyl]-N-(1-hydroxymethyl)-4-methylpyridine-2-carboxamide] | difference between the dose exhibiting a statistically significant decrease in the intracerebral amount of Aβ and the dose exhibiting an immunosuppressing effect ([1]; listed as (1-3)): sufficient differences were recognized
8 | ≤ 5 nM | – | Cc1cc(C(=O)NCO)ncc1C(c1c(F)ccc(F)c1F)S(=O)(=O)c1ccccc1 (stereo not drawn) [Example 106, N-(1-hydroxymethyl)-4-methyl-5-[(phenylsulfonyl)(2,3,6-trifluorophenyl)methyl]pyridine-2-carboxamide] | difference between the dose exhibiting a statistically significant decrease in the intracerebral amount of Aβ and the dose exhibiting an immunosuppressing effect ([1]; listed as (1-4)): sufficient differences were recognized
9 | ≤ 5 nM | 237 to 238 °C | Cc1cc(C(N)=O)ncc1C(c1c(F)ccc(F)c1F)S(=O)(=O)c1ccc(C(F)(F)F)nc1 (stereo not drawn) [Example 117, 4-Methyl-5-[[[6-(trifluoromethyl)pyridin-3-yl]sulfonyl](2,3,6-trifluorophenyl)methyl]pyridine-2-carboxamide] | –
10 | ≤ 5 nM | 181 to 182 °C | Cc1cc(C(=O)NCO)ncc1C(c1c(F)ccc(F)c1F)S(=O)(=O)c1ccc(C(F)(F)F)nc1 (stereo not drawn) [Example 118, N-(1-hydroxymethyl)-4-methyl-5-[[[6-(trifluoromethyl)pyridin-3-yl]sulfonyl](2,3,6-trifluorophenyl)methyl]pyridine-2-carboxamide] | difference between the dose exhibiting a statistically significant decrease in the intracerebral amount of Aβ and the dose exhibiting an immunosuppressing effect ([1]; listed as (1-5)): sufficient differences were recognized
11 | ≤ 5 nM | 177 to 178 °C | Cc1cc(C(=O)NCO)ncc1C(c1c(F)ccc(F)c1F)S(=O)(=O)c1ccc(Cl)cc1 (stereo not drawn) [Example 120, 5-[[(4-Chlorophenyl)sulfonyl](2,3,6-trifluorophenyl)methyl]-N-(hydroxymethyl)-4-methylpyridine-2-carboxamide] | –
12 | ≤ 5 nM | 219 to 220 °C | Cc1cc(C(N)=O)ncc1C(c1c(F)ccc(F)c1F)S(=O)(=O)c1ccc(OC(F)(F)F)cc1 (stereo not drawn) [Example 123, 4-Methyl-5-[[[4-(trifluoromethoxy)phenyl]sulfonyl](2,3,6-trifluorophenyl)methyl]pyridine-2-carboxamide] | –
13 | 5 to 50 nM | 140 to 141 °C | Cc1cc(C(=O)NCO)ncc1C(c1c(F)ccc(F)c1F)S(=O)(=O)c1ccc(OC(F)(F)F)cc1 (stereo not drawn) [Example 124, N-(hydroxymethyl)-4-methyl-5-[[[4-(trifluoromethoxy)phenyl]sulfonyl](2,3,6-trifluorophenyl)methyl]pyridine-2-carboxamide] | –
14 | – | – | CC(C)[C@H](O)C(=O)N[C@@H](C)C(=O)N[C@@H]1C(=O)N(C)CCc2ccccc21 [LY, (N)—((S)-2-hydroxy-3-methyl-butyryl)-1-(L-alaninyl)-(S)-1-amino-3-methyl-4,5,6,7-tetrahydro-2H-3-benzoazepin-2-one, reference compound] | difference between the dose exhibiting a statistically significant decrease in the intracerebral amount of Aβ and the dose exhibiting an immunosuppressing effect [1]: no sufficient difference was recognized; EC50 [2]: 5 to 50 nM
